Data reported in PubChem BioAssay (NCI).
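A five-concentration, 48-hour dose response in 96-well plates underlies each endpoint, interpolated linearly between surrounding concentrations. GI50 marks 50% less growth. At the TGI there is no net growth.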

Experiments:
Assay in all cases: NCI tumour cell line growth inhibition, 48 h
[1] = test system: HCT-116 colon
[2] = test system: HL-60(TB) leukemia
[3] = test system: SNB-75 CNS
[4] = test system: CAKI-1 renal
[5] = test system: U251 CNS
[6] = test system: MCF7 breast
[7] = test system: DU-145 prostate
[8] = test system: HOP-92 NSCLC
[9] = test system: M14 melanoma
[10] = test system: HCC-2998 colon
[11] = test system: SN12C renal
[12] = test system: COLO 205 colon
[13] = test system: TK-10 renal
[14] = test system: SK-MEL-5 melanoma
[15] = test system: K-562 leukemia
[16] = test system: HT29 colon
[17] = test system: NCI-H460 lung
[18] = test system: MALME-3M melanoma
[19] = test system: MOLT-4 leukemia
[20] = test system: UACC-62 melanoma
[21] = test system: HOP-62 NSCLC
[22] = test system: OVCAR-3 ovarian
[23] = test system: MDA-MB-435
[24] = test system: NCI-H226 lung
[25] = test system: A498 renal
[26] = test system: NCI-H522 lung
[27] = test system: UACC-257 melanoma
[28] = test system: OVCAR-5 ovarian
[29] = test system: PC-3 prostate
[30] = test system: SK-MEL-28 melanoma
[31] = test system: KM12 colon
[32] = test system: SK-MEL-2 melanoma
[33] = test system: A549 NSCLC
[34] = test system: NCI-H23 lung
[35] = test system: SK-OV-3 ovarian
[36] = test system: LOX IMVI melanoma
[37] = test system: SNB-19 CNS
[38] = test system: 786-0 renal
[39] = test system: EKVX NSCLC
[40] = test system: CCRF-CEM leukemia
[41] = test system: T-47D breast
[42] = test system: OVCAR-8 ovarian
[43] = test system: RPMI-8226 leukemia
[44] = test system: HS 578T breast
[45] = test system: SF-295 CNS
[46] = test system: ACHN renal
[47] = test system: SF-268 CNS
[48] = test system: OVCAR-4 ovarian
[49] = test system: MDA-MB-231 breast
[50] = test system: IGROV1 ovarian
[51] = test system: BT-549 breast
[52] = test system: HCT-15 colon
[53] = test system: RXF 393 renal
[54] = test system: UO-31 renal
[55] = test system: SF-539 CNS
[56] = test system: NCI/ADR-RES ovarian
[57] = test system: SW-620 colon

With `COc1ccc2c(c1)CCC1C2CCC2(C)C(NC(=O)CCCCC3CCSS3)CCC12` (stereo not given) the GI50 [1] was 11.2 µM, the TGI [1] was > 100 µM and the GI50 [2] was 3.75 µM. The TGI [2] was > 100 µM, the GI50 [3] was 18.2 µM and the TGI [3] was > 100 µM. For the same molecule, the GI50 [4] was 23.9 µM, the TGI [4] was > 100 µM and the GI50 [5] was 17.5 µM. The TGI [5] was > 100 µM, the GI50 [6] was 39.7 µM and the TGI [6] was > 100 µM. For the same molecule, the GI50 [7] was > 100 µM, the TGI [7] was > 100 µM and the GI50 [8] was 4.16 µM. For the same molecule, the TGI [8] was 63.4 µM, the GI50 [9] was 16.8 µM and the TGI [9] was > 100 µM. The GI50 [10] was 30.7 µM, the TGI [10] was > 100 µM and the GI50 [11] was 16.4 µM. For the same molecule, the TGI [11] was > 100 µM, the GI50 [12] was 5.49 µM and the TGI [12] was > 100 µM. For the same molecule, the GI50 [13] was 16.1 µM, the TGI [13] was > 100 µM and the GI50 [14] was 3.26 µM. The TGI [14] was 20.3 µM, the GI50 [15] was 5.81 µM and the TGI [15] was > 100 µM. The GI50 [16] was 4.3 µM, the TGI [16] was 39.2 µM and the GI50 [17] was 4.84 µM. The TGI [17] was 93.3 µM, the GI50 [18] was 92.2 µM and the TGI [18] was > 100 µM. For the same molecule, the GI50 [19] was 4.15 µM, the TGI [19] was > 100 µM and the GI50 [20] was 15 µM. The TGI [20] was > 100 µM, the GI50 [21] was > 100 µM and the TGI [21] was > 100 µM. For the same molecule, the GI50 [22] was 12.6 µM, the TGI [22] was > 100 µM and the GI50 [23] was 9.3 µM. The TGI [23] was > 100 µM, the GI50 [24] was > 100 µM and the TGI [24] was > 100 µM. For the same molecule, the GI50 [25] was 62.2 µM, the TGI [25] was > 100 µM and the GI50 [26] was 9.4 µM. The TGI [26] was > 100 µM, the GI50 [27] was 31.8 µM and the TGI [27] was > 100 µM. The GI50 [28] was > 100 µM, the TGI [28] was > 100 µM and the GI50 [29] was 7.18 µM. For the same molecule, the TGI [29] was > 100 µM, the GI50 [30] was 25.6 µM and the TGI [30] was > 100 µM. The GI50 [31] was 4.54 µM, the TGI [31] was > 100 µM and the GI50 [32] was 53.5 µM. The TGI [32] was > 100 µM, the GI50 [33] was 32.5 µM and the TGI [33] was > 100 µM. The GI50 [34] was > 100 µM, the TGI [34] was > 100 µM and the GI50 [35] was 43.8 µM. For the same molecule, the TGI [35] was > 100 µM, the GI50 [36] was 32.5 µM and the TGI [36] was > 100 µM. For the same molecule, the GI50 [37] was > 100 µM, the TGI [37] was > 100 µM and the GI50 [38] was > 100 µM. The TGI [38] was > 100 µM, the GI50 [39] was > 100 µM and the TGI [39] was > 100 µM. For the same molecule, the GI50 [40] was 6.26 µM, the TGI [40] was > 100 µM and the GI50 [41] was 3.56 µM. For the same molecule, the TGI [41] was > 100 µM, the GI50 [42] was > 100 µM and the TGI [42] was > 100 µM. For the same molecule, the GI50 [43] was 5.85 µM, the TGI [43] was > 100 µM and the GI50 [44] was > 100 µM. For the same molecule, the TGI [44] was > 100 µM, the GI50 [45] was > 100 µM and the TGI [45] was > 100 µM. For the same molecule, the GI50 [46] was 27.6 µM, the TGI [46] was > 100 µM and the GI50 [47] was 6.85 µM. The TGI [47] was > 100 µM, the GI50 [48] was 23 µM and the TGI [48] was > 100 µM. For the same molecule, the GI50 [49] was 14.1 µM, the TGI [49] was > 100 µM and the GI50 [50] was 4.92 µM. For the same molecule, the TGI [50] was > 100 µM, the GI50 [51] was > 100 µM and the TGI [51] was > 100 µM. For the same molecule, the GI50 [52] was 8.21 µM, the TGI [52] was > 100 µM and the GI50 [53] was 27 µM. The TGI [53] was > 100 µM, the GI50 [54] was 6.7 µM and the TGI [54] was > 100 µM. For the same molecule, the GI50 [55] was > 100 µM, the TGI [55] was > 100 µM and the GI50 [56] was > 100 µM. For the same molecule, the TGI [56] was > 100 µM, the GI50 [57] was > 100 µM and the TGI [57] was > 100 µM.

In the case of `O=C(Cc1csc2nc(-c3ccc(Br)cc3)cn12)N/N=C/c1ccccc1O`, the GI50 [1] is reported as 3.21 µM, the TGI [1] is reported as 12.4 µM and the GI50 [3] is reported as 13 µM. It also gave a TGI [3] of 32 µM, a GI50 [4] of 0.397 µM and a TGI [4] of 2.4 µM. It also gave a GI50 [5] of 3.67 µM, a TGI [5] of 15.1 µM and a GI50 [6] of 13.2 µM. For the same molecule, the TGI [6] was > 100 µM, the GI50 [7] was 2.89 µM and the TGI [7] was 13.9 µM. It also gave a GI50 [8] of 2.1 µM, a TGI [8] of 14.6 µM and a GI50 [9] of 2.58 µM. The TGI [9] was 7.77 µM, the GI50 [10] was 3.48 µM and the TGI [10] was 12.7 µM. For the same molecule, the GI50 [11] was 3.34 µM, the TGI [11] was 16 µM and the GI50 [12] was 5.08 µM. For the same molecule, the TGI [12] was 23.1 µM, the GI50 [13] was 2.05 µM and the TGI [13] was 8.72 µM. It also gave a GI50 [14] of 2.98 µM, a TGI [14] of 10.6 µM and a GI50 [15] of 0.0372 µM. For the same molecule, the TGI [15] was 2.95 µM, the GI50 [16] was 5.97 µM and the TGI [16] was 19.2 µM. For the same molecule, the GI50 [17] was 15.7 µM, the TGI [17] was > 100 µM and the GI50 [19] was 2.35 µM. For the same molecule, the TGI [19] was 10.8 µM, the GI50 [20] was 2.09 µM and the TGI [20] was 7.28 µM. It also gave a GI50 [21] of 3.88 µM, a TGI [21] of 14.9 µM and a GI50 [22] of 3.22 µM. It also gave a TGI [22] of 15.1 µM, a GI50 [23] of 3.33 µM and a TGI [23] of 13.6 µM. For the same molecule, the GI50 [24] was 1.93 µM, the TGI [24] was 7.84 µM and the GI50 [26] was 5.27 µM. For the same molecule, the TGI [26] was 27.2 µM, the GI50 [27] was 3.68 µM and the TGI [27] was 11.6 µM. For the same molecule, the GI50 [28] was 5.51 µM, the TGI [28] was 31.9 µM and the GI50 [29] was 4.28 µM. The TGI [29] was 16.7 µM, the GI50 [30] was 11.9 µM and the TGI [30] was 24.2 µM. For the same molecule, the GI50 [31] was 3.62 µM, the TGI [31] was 16.8 µM and the GI50 [32] was 21.1 µM. It also gave a TGI [32] of 53.8 µM, a GI50 [33] of 6.22 µM and a TGI [33] of 24.2 µM. The GI50 [34] was 3.43 µM, the TGI [34] was 14 µM and the GI50 [35] was 12.8 µM. It also gave a TGI [35] of 30.2 µM, a GI50 [36] of 3.47 µM and a TGI [36] of 13 µM. It also gave a GI50 [37] of 6.8 µM, a TGI [37] of 25.4 µM and a GI50 [38] of 4.68 µM. For the same molecule, the TGI [38] was 17.7 µM, the GI50 [39] was 3.93 µM and the TGI [39] was 19.2 µM. For the same molecule, the GI50 [40] was 1.81 µM, the TGI [40] was 8.41 µM and the GI50 [41] was 5.22 µM. The TGI [41] was 23.2 µM, the GI50 [42] was 2.28 µM and the TGI [42] was 12.4 µM. The GI50 [43] was 2.83 µM, the TGI [43] was 20.7 µM and the GI50 [44] was 13.4 µM. For the same molecule, the TGI [44] was 42.3 µM, the GI50 [45] was 2.73 µM and the TGI [45] was 9.34 µM. The GI50 [46] was 1.57 µM, the TGI [46] was 6.3 µM and the GI50 [47] was > 100 µM. For the same molecule, the TGI [47] was > 100 µM, the GI50 [49] was 3.27 µM and the TGI [49] was 17 µM. For the same molecule, the GI50 [50] was 1.04 µM, the TGI [50] was 11.5 µM and the GI50 [51] was 10.1 µM. The TGI [51] was 22.6 µM, the GI50 [52] was 0.952 µM and the TGI [52] was 17.3 µM. The GI50 [53] was 37.7 µM, the TGI [53] was 62.5 µM and the GI50 [54] was 7.16 µM. The TGI [54] was > 100 µM, the GI50 [55] was 3.55 µM and the TGI [55] was 11.8 µM. For the same molecule, the GI50 [56] was 2.53 µM, the TGI [56] was 6.83 µM and the GI50 [57] was 3.98 µM. The TGI [57] was 17.2 µM.
